Experimental data reported in patent US20120015925A1, “NOVEL BENZOTHIAZEPINE AND BENZOTHIEPINE COMPOUNDS” (ASAHI KASEI PHARMA CORPORATION, priority 2004, published 2012).

How the values were obtained:
[1] = test system: rats with partial ligation of the bile duct dosed bile acid; experiment: Model for hepatic disorder associated with cholestasis (partial bile duct ligation model), Protocol A: AST, ALT, ALP; type: in vivo, rat
Description: In the present Test Example, a model for the hepatic disorder caused by partial ligation of the bile duct was employed with reference to Kanno's method (Liver, 43, Suppl(1):A126, 2002).
That is, to the SD (IGS) strain male rats at 7 to 10 weeks of age, the partial ligation of the bile duct was given with opening the abdominal cavity under anesthesia with pentobarbital. Before the operation, the blood was collected from femoral vein, in order to obtain the value before the administration. From the day after the operation, 200 mg/kg of bile acid and the test compound were orally administered forcibly twice per day for 3.5 days (Protocol A). Without giving the partial ligation of the bile duct, 200 mg/kg of bile acid and the test compound were also orally administered forcibly twice per day for 3.5 days (Protocol B). In both cases, the test compound was dissolved or suspended in distilled water or an aqueous solution of 1% HCO 60 (Nippon Chemicals). To the control group, saline was administered. As comparative examples, 25 mg/kg of cholestyramine (supplied from Sigma) or 50 mg/kg of ursodeoxycholic acid (supplied from Mitsubishi Pharma) was administered. For considering the effect of the operation, sham operation (sham group) was performed in some cases. The blood was collected from the abdominal aorta 6 hours after the drug administration on the final day of the experiment. AST (GOT), ALT (GPT) and ALP in the blood were measured using measurement kits (GOT II-HA Test Wako, GPT II-HA Test Wako and Alkaline Phosphor HA Test Wako, all were supplied from Wako Pure Chemical Industries) and using an automatic analyzer (Nitech ANALAYZER SUPER Z818).

[2] = test system: Caco-2 cell; experiment: Gastrointestinal toxicity: cytotoxicity against Caco-2 cell (LDH activity); type: cell-based, human; details: 2 hours, LDH activity in medium relative to cell lysis agent = 100%
Outline: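 Caco-2 cells were grown 48 h, then exposed to compound in medium for 2 h. LDH released into the medium was measured, and cytotoxicity was expressed as activity relative to lysis-agent-treated cells (100%).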

[3] = test system: male beagle dogs; experiment: Effect of combination with pravastatin on plasma total cholesterol levels in dogs; type: in vivo, dog; details: for plasma total cholesterol BEFORE TREATMENT: Example compound 3 mg/kg alone group, baseline; for plasma total cholesterol BEFORE TREATMENT / plasma total cholesterol AFTER TREATMENT: N=4, mean±standard error; for plasma total cholesterol AFTER TREATMENT / plasma total cholesterol BEFORE TREATMENT − AFTER TREATMENT / reduction rate with respect to the data before administration (number in parenthesis): Example compound 3 mg/kg alone, oral once daily for 7 days; for plasma total cholesterol BEFORE TREATMENT − AFTER TREATMENT / reduction rate with respect to the data before administration (number in parenthesis): vehicle 1
Description: The effect of the combination of the compounds described in Example with pravastatin (HMG-CoA reductase inhibitor) on plasma cholesterol levels in dogs was examined.
To male beagle dogs (supplied from Kitayama Labes, body weight 9 to 13 kg), usual solid feedstuff (DS-A: Oriental Yeast Co., Ltd.) was given once daily at 13:00 to 14:00. The light was turned on from 7:00 to 19:00 as a light period, and the remaining was defined as a dark period. Water was given ad libitum. In the morning in the week prior to the administration, the blood was collected with heparin from forearm cephalic vein, and plasma was collected by centrifugation. The total cholesterol level of this plasma was measured using the commercially available cholesterol level measurement kit by the enzymatic method (Cholesterol-E Test Wako). The dogs were grouped so that the total cholesterol levels were almost equal. Sodium pravastatin (1 mg/kg, Sankyo) alone or 3 mg/kg of the compound described in each of Examples alone or the combination thereof was orally administered once daily just before feeding for 7 days. Pravastatin was dissolved in distilled water, and the compound described in Example was suspended in 0.5% methylcellulose solution for administration. On the day after the final administration, the blood was collected from the forearm cephalic vein under starving, to which plasma was obtained. The total cholesterol level therein was measured by the same way. As a result, the total cholesterol level in the plasma was reduced by 7 mg/dL (6%) by orally administering 1 mg/kg/day of pravastatin for 7 days. The total cholesterol level in the plasma was reduced by […] (3 to 8%) by orally administering 3 mg/kg/day of the compound described in each of Examples for 7 days. When pravastatin and the compound described in each of Examples were co-administered at this dosages, the total cholesterol in the plasma was reduced by 14 to 24 mg/dL (12 to 20%). The reduction rate of the total cholesterol level was larger in the co-administration with the compound described in Example than in the administration of pravastatin alone, and the augmented effect by the co-administration was observed.

[4] = target: T1, rat IBAT (Rattus norvegicus, UniProt Q62633); experiment: In vitro assay using Cos 7 cells, transiently expressed rat IBAT; type: cell-based; details: [3H]-taurocholate 8 μM uptake, 37° C., 60 minutes
T1 sequence (Q62633 1-348): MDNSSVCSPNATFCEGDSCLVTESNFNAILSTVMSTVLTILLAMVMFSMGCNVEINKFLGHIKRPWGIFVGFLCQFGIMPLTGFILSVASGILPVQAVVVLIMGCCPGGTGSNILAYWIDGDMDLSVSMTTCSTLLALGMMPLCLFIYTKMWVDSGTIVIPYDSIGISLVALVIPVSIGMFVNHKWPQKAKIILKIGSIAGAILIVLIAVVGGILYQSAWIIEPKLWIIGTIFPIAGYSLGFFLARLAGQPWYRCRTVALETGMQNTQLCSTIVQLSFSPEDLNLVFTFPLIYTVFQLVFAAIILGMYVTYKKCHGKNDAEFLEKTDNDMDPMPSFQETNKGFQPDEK
Description: In the present Test Example, an in vitro assay of compounds using Cos 7 cells as to inhibitory activity on transiently expressed human IBAT or rat IBAT transporter was performed according to the method described in Am. J. Physiol., 274, G157-169.
That is, […] cells/well of Cos 7 cells were seeded in a 24-well plate, and after one day, the cells were transfected with 0.3 μg/well of cDNA of human IBAT or rat IBAT using FuGENE6 (supplied from Roche). After culturing for one day after the transfection, the cells were washed once with the assay buffer, i.e., Hanks buffer containing 25 mM glucose and 10 mM HEPES (pH 7.4). The assay buffer was then replaced with the assay buffer containing the test compound. [^3H]-Taurocholate at a final concentration of 8 μM was added thereto and incubated at 37° C. for 60 minutes so that [^3H]-taurocholate was taken into Cos 7 cells by the action of human IBAT or rat IBAT. The cells were washed twice with the assay buffer containing 1 mM taurocholate, and subsequently lysed with 0.2 M NaOH to stop the reaction. The cell lysate was added to 4 mL of liquid scintillation cocktail, which was then thoroughly vortexed. Then the radioactivity was measured using the liquid scintillation counter.

[5] = Table 12-1, Protocol A, 1 mg/kg in 1% HCO 60, N=3, mean±standard error, control group 417 ± 185, sham 43 ± 1
[6] = Table 12-1, Protocol A, 1 mg/kg in 1% HCO 60, N=3, mean±standard error, control group 589 ± 221, sham 141 ± 26
[7] = Table 12-1, Protocol A, 1 mg/kg in 1% HCO 60, N=3, mean±standard error, control group 2318 ± 583, sham 665 ± 94
[8] = Table 12-2, 1 mg/kg in 1% HCO 60, N=3, mean±standard error, control group 384 ± 156, sham 48 ± 5
[9] = Table 12-2, 1 mg/kg in 1% HCO 60, N=3, mean±standard error, control group 643 ± 125, sham 128 ± 18
[10] = Table 12-2, 1 mg/kg in 1% HCO 60, N=3, mean±standard error, control group 2204 ± 327, sham 630 ± 87

| IC50 [4] [nM] | SMILES | ALT [1, 5] [IU/L] | AST [1, 6] [IU/L] | ALP [1, 7] [IU/L] | CELL TOXICITY AGAINST Caco2 3 μM [2] [%] | CELL TOXICITY AGAINST Caco2 10 μM [2] [%] | CELL TOXICITY AGAINST Caco2 30 μM [2] [%] | ALT [1, 8] [IU/L] | AST [1, 9] [IU/L] | ALP [1, 10] [IU/L] | plasma total cholesterol BEFORE TREATMENT [3] [mg/dL] | plasma total cholesterol AFTER TREATMENT [3] [mg/dL] | plasma total cholesterol BEFORE TREATMENT − AFTER TREATMENT [3] | reduction rate with respect to the data before administration (number in parenthesis) [3] | ALT ([1]; Table 11, Protocol A, 0.1 mg/kg oral twice per day for 3.5 days, N=8, mean±standard error, control group 200 ± 81) [IU/L] | AST ([1]; Table 11, Protocol A, 0.1 mg/kg oral twice per day for 3.5 days, N=8, mean±standard error, control group 400 ± 160) [IU/L] | ALP ([1]; Table 11, Protocol A, 0.1 mg/kg oral twice per day for 3.5 days, N=8, mean±standard error, control group 1120 ± 410) [IU/L] |
| --- | --- | --- | --- | --- | --- | --- | --- | --- | --- | --- | --- | --- | --- | --- | --- | --- | --- |
|  | C#CC[N+](C)(Cc1ccccc1)Cc1ccc(NC(=S)Nc2cccc(C3NC(CCCC)(CCCC)CS(=O)(=O)c4ccc(N(C)C)cc43)c2)cc1.[Br-] (racemic) [EXAMPLE 3448] | 181 ± 79 | 352 ± 210 | 1148 ± 332 | <1 | <1 | <1 |  |  |  |  |  |  |  |  |  |  |
|  | CCCCC1(CCCC)CS(=O)(=O)c2ccc(N(C)C)cc2C(c2cccc(NC(=S)Nc3ccc(C[N+]45CCC(c6ccccc6)(CC4)CC5)cc3)c2)N1.[Br-] (racemic) [EXAMPLE 3696] |  |  |  | <1 | <1 | <1 | 191 ± 21 | 325 ± 87 | 1209 ± 125 | 119 ± 2 | 115 ± 3 | 3 (3) mg/dL | 3 (3) |  |  |  |
|  | CCCCC1(CCCC)CS(=O)(=O)c2ccc(N(C)C)cc2C(c2cccc(NC(=S)CCCCC[N+]34CCC(CC3)CC4)c2)N1.[Br-] (stereo not shown) [EXAMPLE 1, 1-{5-[3-(3,3-dibutyl-7-dimethylamino-1,1-dioxo-2,3,4,5-tetrahydro-1,4-benzothiazepine-5-yl)phenylthiocarbamoyl]pentyl}-1-azoniabicyclo[2.2.2]octane bromide] |  |  |  |  |  |  |  |  |  |  |  |  |  | 61 ± 4 | 182 ± 42 | 603 ± 78 |
| 10 | CCCCC1(CCCC)CS(=O)(=O)c2ccc(N(C)C)cc2C(c2cccc(NC(=S)Nc3ccc(C[N+](C)(C)Cc4ccccc4)cc3)c2)N1.[Br-] (stereo not shown) [EXAMPLE 3440] | 155 ± 38 | 309 ± 37 | 1614 ± 189 | <1 | <1 | <1 |  |  |  |  |  |  |  |  |  |  |
|  | CCCCC1(CCCC)CS(=O)(=O)c2ccc(N(C)C)cc2C(c2cccc(NC(=S)Nc3ccc(C[N+]4(Cc5ccccc5)CCC(O)CC4)cc3)c2)N1.[Br-] (stereo not shown) [EXAMPLE 3605] | 258 ± 219 | 487 ± 382 | 1489 ± 533 | <1 | <1 | <1 |  |  |  |  |  |  |  |  |  |  |
|  | CCCCC1(CCCC)CS(=O)(=O)c2ccc(N(C)C)cc2C(c2cccc(NC(=S)Nc3ccc(C[n+]4ccc(C(C)(C)C)cc4)cc3)c2)N1.[Br-] (stereo not shown) [EXAMPLE 3713] |  |  |  | <1 | <1 | <1 | 163 ± 96 | 280 ± 61 | 1008 ± 289 | 117 ± 4 | 113 ± 3 | 4 mg/dL | 3 |  |  |  |
|  | CCCCC1(CCCC)CS(=O)(=O)c2ccc(N(C)C)cc2C(c2cccc(NC(=S)Nc3ccc(C[n+]4cccc(CCCO)c4)cc3)c2)N1.[Br-] (stereo not shown) [EXAMPLE 3747] |  |  |  | <1 | <1 | <1 | 146 ± 70 | 245 ± 81 | 960 ± 259 |  |  |  |  |  |  |  |
|  | CCCCC1(CCCC)CS(=O)(=O)c2ccc(N(C)C)cc2C(c2cccc(NC(=S)Nc3ccc(C[n+]4cccc(CCC(=O)OC)c4)cc3)c2)N1.[Br-] (stereo not shown) [EXAMPLE 3752] |  |  |  | <1 | <1 | <1 | 165 ± 47 | 358 ± 87 | 1112 ± 184 |  |  |  |  |  |  |  |
|  | CCCCC1(CCCC)CS(=O)(=O)c2ccc(N(C)C)cc2C(c2cccc(NC(=S)Nc3ccc(C[n+]4ccccc4CCC)cc3)c2)N1.[Br-] (stereo not shown) [EXAMPLE 5408] |  |  |  | <1 | <1 | <1 | 197 ± 45 | 198 ± 65 | 1005 ± 102 | 128 ± 4 | 122 ± 4 | 6 mg/dL | 5 |  |  |  |
